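The compound was tested at five concentrations on cells cultured in 96-well plates, with a 48-hour exposure period. Here, GI50 denotes the concentration required for 50% inhibition of growth.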 Active and inactive are the calls of the source. Rule as the data show it: active = GI50 up to about 1.1 µM and inactive = higher.
What was measured:
Assay in all cases: DTP human tumour cell line panel, 48 h
CCRF-CEM = tested on: CCRF-CEM
M14 = tested on: M14
K562 = tested on: K562
T47D = tested on: T47D
UACC-257 = tested on: UACC-257
HT-29 = tested on: HT-29
IGROV-1 = tested on: IGROV-1
A498 = tested on: A498
NCI-H23 = tested on: NCI-H23
MDA-MB-435 = tested on: MDA-MB-435
NCI-H226 = tested on: NCI-H226
SW-620 = tested on: SW-620
SNB-19 = tested on: SNB-19
SNB-75 = tested on: SNB-75
786-0 = tested on: 786-0
A549 = tested on: A549
UACC-62 = tested on: UACC-62
MDA-N = tested on: MDA-N
NCI-H522 = tested on: NCI-H522
HOP-92 = tested on: HOP-92

SMILES	GI50 (CCRF-CEM)	GI50 (M14)	GI50 (K562)	GI50 (T47D)	GI50 (UACC-257)	GI50 (HT-29)	GI50 (IGROV-1)	GI50 (A498)	GI50 (NCI-H23)	GI50 (MDA-MB-435)	GI50 (NCI-H226)	GI50 (SW-620)	GI50 (SNB-19)	GI50 (SNB-75)	GI50 (786-0)	GI50 (A549)	GI50 (UACC-62)	GI50 (MDA-N)	GI50 (NCI-H522)	GI50 (HOP-92)
Nc1nc(N)c2ncn(-c3ccc(Br)cc3)c2n1	8.43 µM (inactive)	14.6 µM (inactive)	11 µM (inactive)	29.4 µM (inactive)	> 100 µM (inactive)	15.1 µM (inactive)	5.38 µM (inactive)	15.6 µM (inactive)	40.6 µM (inactive)	39.2 µM (inactive)	40.6 µM (inactive)	45.9 µM (inactive)	> 59.4 µM (inactive)	6.97 µM (inactive)	28.1 µM (inactive)	33.1 µM (inactive)	17.1 µM (inactive)	60.4 µM (inactive)	9.77 µM (inactive)	
COC1=CC(=O)[C@]2(C)[C@H](C1=O)C(C)[C@H]2c1ccccc1 (some centres not stated)	> 100 µM (inactive)	> 100 µM (inactive)	> 100 µM (inactive)		> 100 µM (inactive)	> 100 µM (inactive)	> 100 µM (inactive)	> 100 µM (inactive)	> 100 µM (inactive)		> 100 µM (inactive)	> 100 µM (inactive)	> 100 µM (inactive)	> 100 µM (inactive)	> 100 µM (inactive)	> 100 µM (inactive)	> 100 µM (inactive)		> 100 µM (inactive)	> 100 µM (inactive)
CO[C@](C(=O)OC[C@H]1[C@@H](COC(C)=O)[C@@H]2O[C@H]1c1cc3c(cc12)OCO3)(c1ccccc1)C(F)(F)F	7.19 µM (inactive)	35.9 µM (inactive)			40.5 µM (inactive)	39.2 µM (inactive)	12.7 µM (inactive)	28.5 µM (inactive)	19.1 µM (inactive)	38.5 µM (inactive)		95.9 µM (inactive)	50.4 µM (inactive)	20.4 µM (inactive)		17.5 µM (inactive)	19.6 µM (inactive)	38.3 µM (inactive)	4.26 µM (inactive)	34 µM (inactive)
C[C@]12CCC(=O)C=C1CC[C@@H]1[C@@H]2[C@@H](O)C[C@@]2(C)[C@H]1CC[C@]2(O)C(=O)COC(=O)COCC(=O)O	> 100 µM (inactive)	> 100 µM (inactive)	> 100 µM (inactive)		> 100 µM (inactive)	> 100 µM (inactive)	> 100 µM (inactive)	> 100 µM (inactive)	> 100 µM (inactive)		> 100 µM (inactive)	> 100 µM (inactive)	> 100 µM (inactive)	> 100 µM (inactive)	> 100 µM (inactive)	> 100 µM (inactive)	> 100 µM (inactive)		> 100 µM (inactive)	> 100 µM (inactive)
CCCCCCCCCCCCCCC(O)C1CCC(C(O)CCC(O)CCCCCC(O)CC2=CC(C)OC2=O)O1 (configuration not stated)	1.29 µM (inactive)	6.3 µM (inactive)	0.0123 µM (active)		0.18 µM (active)	1.82 µM (inactive)	1.44 µM (inactive)	4.45 µM (inactive)	< 0.01 µM (active)		1.09 µM (active)	2.52 µM (inactive)	1.81 µM (inactive)	2.22 µM (inactive)	2.43 µM (inactive)	2.2 µM (inactive)	2.33 µM (inactive)		1.14 µM (inactive)	2.06 µM (inactive)
Sc1nnc(COc2ccc(Cl)cc2)o1	> 100 µM (inactive)	> 100 µM (inactive)	> 100 µM (inactive)		> 100 µM (inactive)	> 100 µM (inactive)	> 100 µM (inactive)	> 100 µM (inactive)	> 100 µM (inactive)		> 100 µM (inactive)	15.5 µM (inactive)	> 100 µM (inactive)	> 100 µM (inactive)	> 100 µM (inactive)	> 100 µM (inactive)	> 100 µM (inactive)		> 100 µM (inactive)	84.3 µM (inactive)
COC(=O)/C=C\C1C(C(=O)OC)C2(C(=O)OC)CCC1(C(=O)OC)N2 (configuration not stated)	4.15 µM (inactive)	14.9 µM (inactive)	12 µM (inactive)		6.5 µM (inactive)	21.2 µM (inactive)	26.9 µM (inactive)	18.1 µM (inactive)	18.7 µM (inactive)		19.1 µM (inactive)	3.13 µM (inactive)	15.8 µM (inactive)	18.5 µM (inactive)	15.3 µM (inactive)	20.4 µM (inactive)	15.9 µM (inactive)		0.681 µM (active)	4.81 µM (inactive)
Cn1c(=O)nc2n(-c3ccc(O)cc3)c3ccccc3nc-2c1=O	33 µM (inactive)	20.4 µM (inactive)	> 100 µM (inactive)		> 100 µM (inactive)	> 100 µM (inactive)	> 100 µM (inactive)	> 100 µM (inactive)	23.3 µM (inactive)		92.3 µM (inactive)	76.4 µM (inactive)	> 100 µM (inactive)	9.23 µM (inactive)	17.3 µM (inactive)	36.7 µM (inactive)	16.4 µM (inactive)		> 100 µM (inactive)	26.4 µM (inactive)
